{"source": "patent US8470822B2", "about": "“Folate mimetics and folate-receptor binding conjugates thereof” (Purdue Research Foundation, priority 2001, dated 2013)", "key": {"[1]": {"target": "T1, folate receptor on KB cells (Homo sapiens, UniProt P15328)", "T1 construct": "host or cells: KB cells (intact, trypsinized, suspended)", "T1 sequence (P15328 25-234)": "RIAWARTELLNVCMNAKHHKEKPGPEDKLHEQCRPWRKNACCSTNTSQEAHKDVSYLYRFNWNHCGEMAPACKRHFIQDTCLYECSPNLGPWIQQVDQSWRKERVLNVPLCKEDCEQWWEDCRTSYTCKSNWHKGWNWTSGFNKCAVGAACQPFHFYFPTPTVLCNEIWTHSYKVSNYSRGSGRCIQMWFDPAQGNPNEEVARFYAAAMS", "assay": "Relative binding affinity: competition with 3H-folic acid for binding to KB cells", "conditions": "100 nM 3H-folic acid, 15 minutes on ice; for relative binding activity compared to folic acid: folic acid set to 1; for EC50: read-out: EC50 (displacement of 3H-folic acid bound to folate receptor)", "description": "Relative binding affinity. […] The relative affinity of various folate derivatives was determined according to the method described by Westerhoff et al. (Mol. Pharm., 1995, 48:459-471) with slight modification. Briefly, folate receptor-positive KB cells were gently trypsinized in 0.25% trypsin in phosphate-buffered saline (PBS) at room temperature for 3 minutes and then diluted in folate-free RPMI 1640 media (FFRPMI) (Gibco) supplemented with 10% heat-inactivated fetal calf serum. Following a 5 minute 800×g spin and one PBS wash, the final cell pellet was suspended in FFRPMI (no serum). […] Samples were centrifuged at 10,000×g for 5 minutes, cell pellets were suspended in buffer, transferred to individual vials containing 5 mL of scintillation cocktail, and then counted for radioactivity.\nBinding activity. The binding activity of pteroyl hydrazide and pteroylhydrazido-BTCA-DAS was determined using the assay described in Example IV."}, "[2]": {"test_system": "folate-receptor-positive human KB cell tumor xenografts", "assay": "Biodistribution of 111In radiotracer in KB tumor-bearing athymic mice after intravenous administration", "type": "in vivo", "description": "Our primary animal model for evaluation of the biodistribution and pharmacokinetics of folate-receptor-targeted radiopharmaceuticals has been athymic mice bearing subcutaneously implanted folate-receptor-positive human KB cell tumors. […] After 3 weeks on folate-free diet, mouse serum folate levels drop to 25±7 nM from the initial 720±260 nM serum folate level when the animals are fed normal rodent chow. This dietary intervention is believed to be a reasonable manipulation of the animal model, since the mice would have serum folate levels only slightly higher than the folate concentration of normal human serum. Thus, in these mouse biodistribution studies the radiotracer is competing for tumor folate receptors with physiologically relevant concentrations of endogenous unlabeled serum folate.\nThe substantial retention of ^111In in the kidneys is fully consistent with the binding of ^111In-CYK4-013 to tissue folate receptors, since the renal proximal tubule is a known normal tissue site of folate receptor expression. […] The behavior of the ^111In-CYK4-013 radiopharmaceutical in this animal model (Table 2) is very similar to that observed for ^111In-DTPA-Folate (Table 3).\nResults. Similar to ^111In-DTPA-Folate, ^111In-CYK4-013 selectively localized in the folate-receptor-positive tumor xenografts, and afforded prolonged tumor retention of ^111In (5.4±0.8; 5.5±1.1; and 3.6±0.6% ID/g at 1 hour, 4 hours, and 24 hours, respectively) (Table 2). […] Blockable binding was also observed in the kidneys, where the folate receptor occurs in the proximal tubules."}, "[3]": {"conditions": "4 Hours Post Injection BLOCKED, Folic Acid Dose 495 ± 79 μg/kg, n = 4"}}}
{"smiles": "Nc1nc(O)c2nc(CNc3ccc(C(=O)O[C@H](C(=O)O)c4ccccc4)cc3)cnc2n1", "note": "[ACBP, (S)-α-carboxybenzoyl pteroate]", "values": [{"measurement": "relative binding activity compared to folic acid", "setting": "[1]", "result": 0.46}, {"measurement": "EC50", "setting": "[1]", "result": 204, "unit": "nM"}]}
{"smiles": "Nc1nc2ncc(CNc3ccc(C(=O)NC(C(=O)O)c4ccccn4)cc3)nc2c(=O)[nH]1", "note": "(stereo not drawn) [Pte-AP, N-pteroyl-2-amino-2-carboxymethylpyridine]", "values": [{"measurement": "relative binding activity compared to folic acid", "setting": "[1]", "result": 0.48}, {"measurement": "EC50", "setting": "[1]", "result": 193, "unit": "nM"}]}
{"smiles": "NNC(=O)c1ccc(NCc2cnc3nc(N)nc(O)c3n2)cc1", "note": "[Pteroyl hydrazide, pteroyl hydrazide]", "values": [{"measurement": "relative binding activity compared to folic acid", "setting": "[1]", "result": 0.74}, {"measurement": "EC50", "setting": "[1]", "result": 94, "unit": "nM"}]}
{"smiles": "Nc1nc2ncc(CNc3ccc(C(=O)N[C@@H](CCC(=O)NCCNC(=O)CN(CCN(CCN(CC(=O)[O-])CC(=O)[O-])CC(=O)[O-])CC(=O)[O-])C(=O)O)cc3)nc2c(=O)[nH]1.[111In]", "note": "[^111In-DTPA-Folate, reference compound]", "values": [{"measurement": "Percentage of Injected 111In Dose Per Gram: Blood", "setting": "[2]; 1 Hour Post Injection, n = 4", "result": "0.14 ± 0.03", "unit": "% ID/g"}, {"measurement": "Percentage of Injected 111In Dose Per Gram: Heart", "setting": "[2]; 1 Hour Post Injection, n = 4", "result": "2.3 ± 0.4", "unit": "% ID/g"}, {"measurement": "Percentage of Injected 111In Dose Per Gram: Kidney", "setting": "[2]; 1 Hour Post Injection, n = 4", "result": "90 ± 9", "unit": "% ID/g"}, {"measurement": "Percentage of Injected 111In Dose Per Gram: Liver & Gall Bladder", "setting": "[2]; 1 Hour Post Injection, n = 4", "result": "4.0 ± 1.5", "unit": "% ID/g"}, {"measurement": "Percentage of Injected 111In Dose Per Gram: Lungs", "setting": "[2]; 1 Hour Post Injection, n = 4", "result": "1.3 ± 0.1", "unit": "% ID/g"}, {"measurement": "Percentage of Injected 111In Dose Per Gram: Muscle", "setting": "[2]; 1 Hour Post Injection, n = 4", "result": "3.5 ± 0.8", "unit": "% ID/g"}, {"measurement": "Percentage of Injected 111In Dose Per Gram: Spleen", "setting": "[2]; 1 Hour Post Injection, n = 4", "result": "0.36 ± 0.03", "unit": "% ID/g"}, {"measurement": "Percentage of Injected 111In Dose Per Gram: Stomach, Intestines & Contents", "setting": "[2]; 1 Hour Post Injection, n = 4", "result": "1.0 ± 0.2", "unit": "% ID/g"}, {"measurement": "Percentage of Injected 111In Dose Per Gram: Tumor", "setting": "[2]; 1 Hour Post Injection, n = 4", "result": "5.3 ± 0.4", "unit": "% ID/g"}, {"measurement": "Tumor/blood ratio", "setting": "[2]; 1 Hour Post Injection, n = 4", "result": "38 ± 7"}, {"measurement": "Tumor/kidney ratio", "setting": "[2]; 1 Hour Post Injection, n = 4", "result": "0.060 ± 0.011"}, {"measurement": "Tumor/liver ratio", "setting": "[2]; 1 Hour Post Injection, n = 4", "result": "1.5 ± 0.5"}, {"measurement": "Tumor/muscle ratio", "setting": "[2]; 1 Hour Post Injection, n = 4", "result": "1.6 ± 0.3"}, {"measurement": "Tumor/kidney ratio", "setting": "[2]; 4 Hours Post Injection BLOCKED, Folic Acid Dose 495 ± 79 μg/kg", "result": "0.050 ± 0.023"}, {"measurement": "Percentage of Injected 111In Dose Per Gram: Kidney", "setting": "[2]; 4 Hours Post Injection BLOCKED, Folic Acid Dose 495 ± 79 μg/kg, n = 3, anomalous animal excluded", "result": "2.3 ± 1.0", "unit": "% ID/g"}, {"measurement": "Percentage of Injected 111In Dose Per Gram: Blood", "setting": "[2]; [3]", "result": "0.029 ± 0.011", "unit": "% ID/g"}, {"measurement": "Percentage of Injected 111In Dose Per Gram: Heart", "setting": "[2]; [3]", "result": "0.022 ± 0.010", "unit": "% ID/g"}, {"measurement": "Percentage of Injected 111In Dose Per Gram: Liver & Gall Bladder", "setting": "[2]; [3]", "result": "0.12 ± 0.03", "unit": "% ID/g"}, {"measurement": "Percentage of Injected 111In Dose Per Gram: Lungs", "setting": "[2]; [3]", "result": "0.065 ± 0.021", "unit": "% ID/g"}, {"measurement": "Percentage of Injected 111In Dose Per Gram: Muscle", "setting": "[2]; [3]", "result": "0.023 ± 0.013", "unit": "% ID/g"}, {"measurement": "Percentage of Injected 111In Dose Per Gram: Spleen", "setting": "[2]; [3]", "result": "0.060 ± 0.021", "unit": "% ID/g"}, {"measurement": "Percentage of Injected 111In Dose Per Gram: Stomach, Intestines & Contents", "setting": "[2]; [3]", "result": "0.49 ± 0.20", "unit": "% ID/g"}, {"measurement": "Percentage of Injected 111In Dose Per Gram: Tumor", "setting": "[2]; [3]", "result": "0.16 ± 0.07", "unit": "% ID/g"}, {"measurement": "Tumor/blood ratio", "setting": "[2]; [3]", "result": "5.5 ± 0.8"}, {"measurement": "Tumor/liver ratio", "setting": "[2]; [3]", "result": "1.4 ± 0.4"}, {"measurement": "Tumor/muscle ratio", "setting": "[2]; [3]", "result": "8.4 ± 3.8"}, {"measurement": "Percentage of Injected 111In Dose Per Gram: Blood", "setting": "[2]; 4 Hours Post Injection, n = 4", "result": "0.064 ± 0.007", "unit": "% ID/g"}, {"measurement": "Percentage of Injected 111In Dose Per Gram: Heart", "setting": "[2]; 4 Hours Post Injection, n = 4", "result": "2.0 ± 0.3", "unit": "% ID/g"}, {"measurement": "Percentage of Injected 111In Dose Per Gram: Kidney", "setting": "[2]; 4 Hours Post Injection, n = 4", "result": "85 ± 12", "unit": "% ID/g"}, {"measurement": "Percentage of Injected 111In Dose Per Gram: Liver & Gall Bladder", "setting": "[2]; 4 Hours Post Injection, n = 4", "result": "2.2 ± 0.4", "unit": "% ID/g"}, {"measurement": "Percentage of Injected 111In Dose Per Gram: Lungs", "setting": "[2]; 4 Hours Post Injection, n = 4", "result": "1.1 ± 0.3", "unit": "% ID/g"}, {"measurement": "Percentage of Injected 111In Dose Per Gram: Muscle", "setting": "[2]; 4 Hours Post Injection, n = 4", "result": "2.9 ± 0.7", "unit": "% ID/g"}, {"measurement": "Percentage of Injected 111In Dose Per Gram: Spleen", "setting": "[2]; 4 Hours Post Injection, n = 4", "result": "0.35 ± 0.11", "unit": "% ID/g"}, {"measurement": "Percentage of Injected 111In Dose Per Gram: Stomach, Intestines & Contents", "setting": "[2]; 4 Hours Post Injection, n = 4", "result": "1.0 ± 0.2", "unit": "% ID/g"}, {"measurement": "Percentage of Injected 111In Dose Per Gram: Tumor", "setting": "[2]; 4 Hours Post Injection, n = 4", "result": "6.8 ± 1.2", "unit": "% ID/g"}, {"measurement": "Tumor/blood ratio", "setting": "[2]; 4 Hours Post Injection, n = 4", "result": "106 ± 15"}, {"measurement": "Tumor/kidney ratio", "setting": "[2]; 4 Hours Post Injection, n = 4", "result": "0.080 ± 0.012"}, {"measurement": "Tumor/liver ratio", "setting": "[2]; 4 Hours Post Injection, n = 4", "result": "3.3 ± 1.1"}, {"measurement": "Tumor/muscle ratio", "setting": "[2]; 4 Hours Post Injection, n = 4", "result": "2.5 ± 0.9"}]}
